Experimental data taken from ChEMBL document CHEMBL1158070, “Gymnastatins F-H, cytostatic metabolites from the sponge-derived fungus Gymnascella dankaliensis” (2006).
≈ marks a conversion by molar mass, not a printed value.

Each molecule was assayed on P388 (assay: Cytotoxicity against mouse P388 cells). Conditions: read-out: ED50 (the source's name).
Type: functional

Point of comparison: CCCCCC[C@@H](C)/C=C(C)/C=C/C(=O)N[C@H]1C[C@]2(O)[C@H]3O[C@H]3C(=O)[C@](Cl)([C@H]1O)[C@H]2OC [GYMNASTATIN G], EC50 0.03 µg/mL (≈ 0.0638 µM). Against it:
- O=c1[nH]cc(F)c(=O)[nH]1 [FLUOROURACIL] — 2.4-fold higher, 0.073 µg/mL (≈ 0.561 µM)
- CCCCCC[C@@H](C)/C=C(C)/C=C/C(N)=O [GYMNAMIDE] — higher, > 10 µg/mL
- CCCCCC[C@@H](C)/C=C(C)/C=C/C(=O)N[C@H]1C[C@]2(O)C=C(Cl)C(=O)[C@@](Cl)([C@H]2OC)[C@H]1O [GYMNASTATIN F] — 4.3-fold higher, 0.13 µg/mL (≈ 0.266 µM)
- CCCCCC[C@@H](C)/C=C(C)/C=C/C(=O)N[C@@H](Cc1ccc(O)cc1)C(=O)OC [GYMNASTATIN H] — higher, > 10 µg/mL
